These results are taken from the supplement of paper PMC10307832.

Common to all, as to assay: relative viability (nuclei count vs DMSO), 5 days (fraction); higher = more cells survive
Compound in the experiment “AZ628 + Dasatinib”: CC1=C(C=C(C=C1)NC(=O)C2=CC(=CC=C2)C(C)(C)C#N)NC3=CC4=C(C=C3)N=CN(C4=O)C [AZ628] + Cc1nc(Nc2ncc(C(=O)Nc3c(C)cccc3Cl)s2)cc(N2CCN(CCO)CC2)n1 [Dasatinib] (partner 0.075 µM)
A digest of the protocol: (§1)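 Relative viability was taken as the ratio of nuclei in treated wells to nuclei in vehicle wells. Lung cancer cell lines in 1536-well plates received compounds by pin tool one day after seeding, either one drug alone or a fixed anchor-drug dose plus five library-drug doses (not always all listed) in √10 steps. Nuclei were counted on 4× images after 5 days of treatment, and values are medians of duplicate plates.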

Compound in the experiment “AZ628 + Phenformin”: CC1=C(C=C(C=C1)NC(=O)C2=CC(=CC=C2)C(C)(C)C#N)NC3=CC4=C(C=C3)N=CN(C4=O)C [AZ628] + N=C(N)NC(=N)NCCc1ccccc1 [Phenformin] (partner 250 µM)
A digest of the protocol: as §1

Compound in the experiment “AZ628 + AZD7762”: CC1=C(C=C(C=C1)NC(=O)C2=CC(=CC=C2)C(C)(C)C#N)NC3=CC4=C(C=C3)N=CN(C4=O)C [AZ628] + NC(=O)Nc1cc(-c2cccc(F)c2)sc1C(=O)N[C@H]1CCCNC1 [AZD7762] (partner 0.2 µM)
A digest of the protocol:
as §1

Compound in experiment [1]: C[As](C)SC[C@H](NC(=O)CC[C@H](N)C(=O)O)C(=O)NCC(=O)O [Darinaparsin] + Nc1ncn([C@H]2C[C@H](O)[C@@H](CO)O2)c(=O)n1 [Decitabine] (partner 2 µM)
In short, it runs like this:
as §1

Consider LCLC-103H, for which the relative viability worked out at 0.559 in the experiment with AZ628 + Dasatinib (first compound 0.08 µM); 0.427 with AZ628 + Dasatinib (first compound 0.253 µM); 0.523 in the experiment with AZ628 + Dasatinib (first compound 0.8 µM); 0.399 with AZ628 + Dasatinib (first compound 2.53 µM); 0.478 in the experiment with AZ628 + Dasatinib (first compound 8 µM); 0.358 with AZ628 + Phenformin (first compound 0.08 µM). Moreover, the relative viability in the experiment with AZ628 + Phenformin (first compound 0.253 µM) was 0.329; in the experiment with AZ628 + Phenformin (first compound 0.8 µM), 0.343; in the experiment with AZ628 + Phenformin (first compound 2.53 µM), 0.302; in the experiment with AZ628 + Phenformin (first compound 8 µM), 0.308; in the experiment with AZ628 + AZD7762 (first compound 0.08 µM) it was 0.759; with AZ628 + AZD7762 (first compound 0.253 µM) it was 0.771. Further, the relative viability in the experiment with AZ628 + AZD7762 (first compound 0.8 µM) amounted to 0.824; with AZ628 + AZD7762 (first compound 2.53 µM), 0.79; with AZ628 + AZD7762 (first compound 8 µM) it was 0.783; in experiment [1] (first compound 0.08 µM), 0.788; in experiment [1] (first compound 0.8 µM) it was 0.722; in experiment [1] (first compound 2.53 µM) it was 0.715. Also, the relative viability in experiment [1] (first compound 8 µM) came out at 0.8.

On to NCI-H596, for which the relative viability with AZ628 + Dasatinib (first compound 0.08 µM) worked out at 0.693; with AZ628 + Dasatinib (first compound 0.253 µM), 0.618; with AZ628 + Dasatinib (first compound 0.8 µM), 0.573; with AZ628 + Dasatinib (first compound 2.53 µM), 0.565; in the experiment with AZ628 + Dasatinib (first compound 8 µM), 0.471; in the experiment with AZ628 + Phenformin (first compound 0.08 µM) it was 0.722. In addition, the relative viability with AZ628 + Phenformin (first compound 0.253 µM) came to 0.85; with AZ628 + Phenformin (first compound 0.8 µM) it was 0.969; with AZ628 + Phenformin (first compound 2.53 µM), 0.781; with AZ628 + Phenformin (first compound 8 µM) it was 0.808; with AZ628 + AZD7762 (first compound 0.08 µM) it was 1.11; in the experiment with AZ628 + AZD7762 (first compound 0.253 µM), 1.08. The relative viability amounted to 1.02 with AZ628 + AZD7762 (first compound 0.8 µM); 1.17 with AZ628 + AZD7762 (first compound 2.53 µM); 0.915 in the experiment with AZ628 + AZD7762 (first compound 8 µM); 1.02 in experiment [1] (first compound 0.08 µM); 1.11 in experiment [1] (first compound 0.8 µM); 1 in experiment [1] (first compound 2.53 µM). The relative viability in experiment [1] (first compound 8 µM) was 1.15.

Consider NCI-H1944, for which the relative viability came to 0.209 with AZ628 + Dasatinib (first compound 0.08 µM); 0.211 with AZ628 + Dasatinib (first compound 0.253 µM); 0.208 in the experiment with AZ628 + Dasatinib (first compound 0.8 µM); 0.192 in the experiment with AZ628 + Dasatinib (first compound 2.53 µM); 0.197 with AZ628 + Dasatinib (first compound 8 µM); 0.188 with AZ628 + Phenformin (first compound 0.08 µM). Further, the relative viability in the experiment with AZ628 + Phenformin (first compound 0.253 µM) was 0.181; with AZ628 + Phenformin (first compound 0.8 µM) it was 0.184; with AZ628 + Phenformin (first compound 2.53 µM), 0.177; with AZ628 + Phenformin (first compound 8 µM) it was 0.187; in the experiment with AZ628 + AZD7762 (first compound 0.08 µM) it was 0.5; in the experiment with AZ628 + AZD7762 (first compound 0.253 µM), 0.488. For the same cell line, the relative viability turned out to be 0.454 with AZ628 + AZD7762 (first compound 0.8 µM); 0.414 with AZ628 + AZD7762 (first compound 2.53 µM); 0.359 with AZ628 + AZD7762 (first compound 8 µM); 0.437 in experiment [1] (first compound 0.08 µM); 0.466 in experiment [1] (first compound 0.8 µM); 0.452 in experiment [1] (first compound 2.53 µM). Besides, in experiment [1] (first compound 8 µM), the relative viability came to 0.442.

For HCC-827, the relative viability in the experiment with AZ628 + Dasatinib (first compound 0.08 µM) came to 0.364; with AZ628 + Dasatinib (first compound 0.253 µM), 0.295; with AZ628 + Dasatinib (first compound 0.8 µM), 0.296; with AZ628 + Dasatinib (first compound 2.53 µM) it was 0.25; in the experiment with AZ628 + Dasatinib (first compound 8 µM), 0.18; in the experiment with AZ628 + Phenformin (first compound 0.08 µM), 0.445. The relative viability in the experiment with AZ628 + Phenformin (first compound 0.253 µM) is 0.421; with AZ628 + Phenformin (first compound 0.8 µM), 0.434; in the experiment with AZ628 + Phenformin (first compound 2.53 µM), 0.374; with AZ628 + Phenformin (first compound 8 µM) it was 0.335; with AZ628 + AZD7762 (first compound 0.08 µM), 0.258; with AZ628 + AZD7762 (first compound 0.253 µM), 0.177. For the same cell line, the relative viability in the experiment with AZ628 + AZD7762 (first compound 0.8 µM) came to 0.17; in the experiment with AZ628 + AZD7762 (first compound 2.53 µM) it was 0.217; with AZ628 + AZD7762 (first compound 8 µM), 0.166; in experiment [1] (first compound 0.08 µM), 0.284; in experiment [1] (first compound 0.8 µM), 0.316; in experiment [1] (first compound 2.53 µM), 0.32. The relative viability in experiment [1] (first compound 8 µM) was found to be 0.363.

On to NCI-H727, for which the relative viability with AZ628 + Dasatinib (first compound 0.08 µM) stood at 0.318; with AZ628 + Dasatinib (first compound 0.253 µM), 0.3; in the experiment with AZ628 + Dasatinib (first compound 0.8 µM), 0.306; with AZ628 + Dasatinib (first compound 2.53 µM) it was 0.23; in the experiment with AZ628 + Dasatinib (first compound 8 µM), 0.264; with AZ628 + Phenformin (first compound 0.08 µM), 0.422. The relative viability with AZ628 + Phenformin (first compound 0.253 µM) stood at 0.386; with AZ628 + Phenformin (first compound 0.8 µM) it was 0.374; in the experiment with AZ628 + Phenformin (first compound 2.53 µM) it was 0.329; with AZ628 + Phenformin (first compound 8 µM) it was 0.341; with AZ628 + AZD7762 (first compound 0.08 µM), 0.504; with AZ628 + AZD7762 (first compound 2.53 µM), 0.369. Also, the relative viability came out at 0.333 with AZ628 + AZD7762 (first compound 8 µM); 0.891 in experiment [1] (first compound 0.08 µM); 0.816 in experiment [1] (first compound 0.8 µM); 0.9 in experiment [1] (first compound 2.53 µM); 1.04 in experiment [1] (first compound 8 µM).

As to NCI-H1915, the relative viability with AZ628 + Dasatinib (first compound 0.08 µM) was 0.327; with AZ628 + Dasatinib (first compound 0.253 µM), 0.293; in the experiment with AZ628 + Dasatinib (first compound 0.8 µM), 0.249; in the experiment with AZ628 + Dasatinib (first compound 2.53 µM), 0.199; in the experiment with AZ628 + Dasatinib (first compound 8 µM), 0.139; with AZ628 + Phenformin (first compound 0.08 µM), 0.404. Besides, the relative viability with AZ628 + Phenformin (first compound 0.253 µM) came out at 0.388; in the experiment with AZ628 + Phenformin (first compound 0.8 µM), 0.374; with AZ628 + Phenformin (first compound 2.53 µM), 0.351; in the experiment with AZ628 + Phenformin (first compound 8 µM), 0.233; in the experiment with AZ628 + AZD7762 (first compound 0.08 µM), 0.741; with AZ628 + AZD7762 (first compound 0.253 µM) it was 0.782. In addition, the relative viability came out at 0.644 in the experiment with AZ628 + AZD7762 (first compound 0.8 µM); 0.558 with AZ628 + AZD7762 (first compound 2.53 µM); 0.271 with AZ628 + AZD7762 (first compound 8 µM); 0.288 in experiment [1] (first compound 0.08 µM); 0.239 in experiment [1] (first compound 0.8 µM); 0.254 in experiment [1] (first compound 2.53 µM). Also, the relative viability in experiment [1] (first compound 8 µM) amounted to 0.256.

As to NCI-H2347, the relative viability came to 0.272 in the experiment with AZ628 + Dasatinib (first compound 0.08 µM); 0.278 in the experiment with AZ628 + Dasatinib (first compound 0.253 µM); 0.22 in the experiment with AZ628 + Dasatinib (first compound 0.8 µM); 0.252 in the experiment with AZ628 + Dasatinib (first compound 2.53 µM); 0.163 with AZ628 + Dasatinib (first compound 8 µM); 0.267 with AZ628 + Phenformin (first compound 0.08 µM). The relative viability with AZ628 + Phenformin (first compound 0.253 µM) was 0.392; with AZ628 + Phenformin (first compound 0.8 µM), 0.493; with AZ628 + Phenformin (first compound 2.53 µM), 0.324; with AZ628 + Phenformin (first compound 8 µM), 0.205; in the experiment with AZ628 + AZD7762 (first compound 0.08 µM) it was 0.684; with AZ628 + AZD7762 (first compound 0.253 µM) it was 0.575. In addition, the relative viability with AZ628 + AZD7762 (first compound 0.8 µM) amounted to 0.709; in the experiment with AZ628 + AZD7762 (first compound 2.53 µM) it was 0.566; with AZ628 + AZD7762 (first compound 8 µM), 0.34; in experiment [1] (first compound 0.08 µM), 0.667; in experiment [1] (first compound 0.8 µM) it was 0.632; in experiment [1] (first compound 2.53 µM), 0.733. Also, the relative viability in experiment [1] (first compound 8 µM) was found to be 0.697.

With NCI-H647, the relative viability amounted to 0.193 with AZ628 + Dasatinib (first compound 0.08 µM); 0.173 in the experiment with AZ628 + Dasatinib (first compound 0.253 µM); 0.217 in the experiment with AZ628 + Dasatinib (first compound 0.8 µM); 0.14 with AZ628 + Dasatinib (first compound 2.53 µM); 0.15 with AZ628 + Dasatinib (first compound 8 µM); 0.695 with AZ628 + Phenformin (first compound 0.08 µM). Also, the relative viability in the experiment with AZ628 + Phenformin (first compound 0.253 µM) is 0.525; with AZ628 + Phenformin (first compound 0.8 µM), 0.467; in the experiment with AZ628 + Phenformin (first compound 2.53 µM), 0.323; with AZ628 + Phenformin (first compound 8 µM), 0.405; in the experiment with AZ628 + AZD7762 (first compound 0.08 µM) it was 0.485; with AZ628 + AZD7762 (first compound 0.253 µM), 0.417. Moreover, the relative viability with AZ628 + AZD7762 (first compound 0.8 µM) amounted to 0.456; with AZ628 + AZD7762 (first compound 2.53 µM), 0.488; with AZ628 + AZD7762 (first compound 8 µM) it was 0.397; in experiment [1] (first compound 0.08 µM) it was 0.444; in experiment [1] (first compound 0.8 µM), 0.39; in experiment [1] (first compound 2.53 µM) it was 0.346. Further, the relative viability in experiment [1] (first compound 8 µM) is 0.476.
